According to ChEMBL document CHEMBL3751683, “Synthesis, colon-targeted studies and pharmacological evaluation of an anti-ulcerative colitis drug 4-Aminosalicylic acid-β-O-glucoside” (Eur J Med Chem, 2016):
Values after ≈ are worked out from the molar mass of the structure shown. Values belong to the molecule of their own block, whether it stands above or below them. Active and inactive are the calls of the source. The rule behind the calls is not given here.

How the values were obtained:
[1] = system: Rattus norvegicus; experiment: Antiulcerative colitis activity in TNBS-induced Sprague-Dawley rat colitis model assessed as decrease in severity of inflammation at 115 mg/kg qd for 6 consecutive days measured on 7th day; format: functional, organism-based
[2] = system: Rattus norvegicus; experiment: Antiulcerative colitis activity in TNBS-induced Sprague-Dawley rat colitis model assessed as effect on TNBS-induced inflammatory infiltrate at 115 mg/kg qd for 6 consecutive days by hematoxylin and eosin staining based light microscopic analysis; format: functional, organism-based
[3] = system: Rattus norvegicus; experiment: Antiulcerative colitis activity in TNBS-induced Sprague-Dawley rat colitis model assessed as effect on TNBS-induced mucosal abscess at 115 mg/kg qd for 6 consecutive days by hematoxylin and eosin staining based light microscopic analysis; format: functional, organism-based
[4] = system: Rattus norvegicus; experiment: Antiulcerative colitis activity in TNBS-induced Sprague-Dawley rat colitis model assessed as myeloperoxidase activity at 300 mg/kg, qd for 6 consecutive days by spectrophotometry (reference value: 1.44 +/- 0.041 U/g); format: functional
[5] = system: Rattus norvegicus; experiment: Antiulcerative colitis activity in TNBS-induced Sprague-Dawley rat colitis model assessed as decrease in severity of inflammation at 300 mg/kg qd for 6 consecutive days measured on 7th day; format: functional, organism-based
[6] = system: Rattus norvegicus; experiment: Antiulcerative colitis activity in TNBS-induced Sprague-Dawley rat colitis model assessed as effect on TNBS-induced mucosal abscess at 128 mg/kg qd for 6 consecutive days by hematoxylin and eosin staining based light microscopic analysis; format: functional, organism-based
[7] = Stability of compound in isotonic phosphate buffer at pH 6.8 after 12 hrs by HPLC analysis; format: physicochemical; conditions: pH 6.8, 12 h
[8] = system: Rattus norvegicus; experiment: Antiulcerative colitis activity in TNBS-induced Sprague-Dawley rat colitis model assessed as myeloperoxidase activity at 255 mg/kg, qd for 6 consecutive days by spectrophotometry (reference value: 1.44 +/- 0.041 U/g); format: functional
[9] = Stability of compound in isotonic phosphate buffer at pH 1.2 after 12 hrs by HPLC analysis; format: physicochemical; conditions: pH 1.2, 12 h
[10] = system: Rattus norvegicus; experiment: Antiulcerative colitis activity in TNBS-induced Sprague-Dawley rat colitis model assessed as normal morphology of colon at 255 mg/kg qd for 6 consecutive days by hematoxylin and eosin staining based light microscopic analysis; format: functional, organism-based
[11] = system: Rattus norvegicus; experiment: Antiulcerative colitis activity in TNBS-induced Sprague-Dawley rat colitis model assessed as decrease in macroscopic injury ratio drug administered once daily for 6 consecutive days measured 24 hrs after last drug challenge; format: functional, organism-based
[12] = system: Rattus norvegicus; experiment: Antiulcerative colitis activity in TNBS-induced Sprague-Dawley rat colitis model at 385 mg/kg, qd for 6 consecutive days measured after 12 days; format: functional, organism-based
[13] = system: Rattus norvegicus; experiment: Antiulcerative colitis activity in TNBS-induced Sprague-Dawley rat colitis model drug administered for once daily for 6 consecutive days; format: functional, organism-based
[14] = Aqueous solubility of the compound; format: physicochemical; conditions: buffer
[15] = system: Rattus norvegicus; experiment: Antiulcerative colitis activity in TNBS-induced Sprague-Dawley rat colitis model assessed as myeloperoxidase activity at 385 mg/kg, qd for 6 consecutive days by spectrophotometry (reference value: 1.44 +/- 0.041 U/g); format: functional
[16] = system: Rattus norvegicus; experiment: Antiulcerative colitis activity in TNBS-induced Sprague-Dawley rat colitis model assessed as normal morphology of colon at 385 mg/kg qd for 6 consecutive days by hematoxylin and eosin staining based light microscopic analysis; format: functional, organism-based
[17] = Stability of compound in isotonic phosphate buffer at pH 7.4 after 12 hrs by HPLC analysis; format: physicochemical; conditions: pH 7.4, 12 h
[18] = Partition coefficient, log P of the compound at pH 7.4 by shake flask method; format: physicochemical; conditions: octanol/water
[19] = system: Rattus norvegicus; experiment: Antiulcerative colitis activity in TNBS-induced Sprague-Dawley rat colitis model assessed as decrease in colon/body weight ratio drug administered once daily for 6 consecutive days measured 24 hrs after last drug challenge; format: functional, organism-based
[20] = system: Rattus norvegicus; experiment: Antiulcerative colitis activity in TNBS-induced Sprague-Dawley rat colitis model assessed as decrease in severity of inflammation at 385 to 128 mg/kg qd for 6 consecutive days measured on 7th day; format: functional, organism-based
[21] = system: Small intestine; experiment: Drug level in colitis Sprague-Dawley rat model small intestine homogenate treated with sodium 4-amino-2-((2S,3R,4S,5S,6R)-3,4,5-trihydroxy-6-(hydroxymethyl)tetrahydro-2H- pyran-2-yloxy)benzoate at pH 6.8 by HPLC analysis; format: ADME, tissue-based; conditions: in vivo
[22] = Drug level in colitis Sprague-Dawley rat model cecum treated with sodium 4-amino-2-((2S,3R,4S,5S,6R)-3,4,5-trihydroxy-6-(hydroxymethyl)tetrahydro-2H- pyran-2-yloxy)benzoate at pH 7.4 after 12 hrs by HPLC analysis; format: ADME, tissue-based, Caecum; conditions: in vivo, pH 7.4, 12 h
[23] = system: Rattus norvegicus; experiment: Antiulcerative colitis activity in TNBS-induced Sprague-Dawley rat colitis model assessed as myeloperoxidase activity at 115 mg/kg, qd for 6 consecutive days by spectrophotometry (reference value: 1.44 +/- 0.041 U/g); format: functional
[24] = system: Colon; experiment: Drug level in colitis Sprague-Dawley rat model colon treated with sodium 4-amino-2-((2S,3R,4S,5S,6R)-3,4,5-trihydroxy-6-(hydroxymethyl)tetrahydro-2H- pyran-2-yloxy)benzoate at pH 7.4 after 12 hrs by HPLC analysis; format: ADME, tissue-based; conditions: in vivo, pH 7.4, 12 h
[25] = system: Stomach; experiment: Drug level in colitis Sprague-Dawley rat model stomach homogenate treated with sodium 4-amino-2-((2S,3R,4S,5S,6R)-3,4,5-trihydroxy-6-(hydroxymethyl)tetrahydro-2H- pyran-2-yloxy)benzoate at pH 4.5 by HPLC analysis; format: ADME, tissue-based; conditions: in vivo
[26] = system: Stomach; experiment: Drug level in Sprague-Dawley rat stomach homogenate treated with sodium 4-amino-2-((2S,3R,4S,5S,6R)-3,4,5-trihydroxy-6-(hydroxymethyl)tetrahydro-2H- pyran-2-yloxy)benzoate at pH 4.5 by HPLC analysis; format: ADME, tissue-based; conditions: in vivo
[27] = Drug level in Sprague-Dawley rat cecum treated with sodium 4-amino-2-((2S,3R,4S,5S,6R)-3,4,5-trihydroxy-6-(hydroxymethyl)tetrahydro-2H- pyran-2-yloxy)benzoate at pH 7.4 after 12 hrs by HPLC analysis; format: ADME, tissue-based, Caecum; conditions: in vivo, pH 7.4, 12 h
[28] = system: Colon; experiment: Drug level in Sprague-Dawley rat colon treated with sodium 4-amino-2-((2S,3R,4S,5S,6R)-3,4,5-trihydroxy-6-(hydroxymethyl)tetrahydro-2H- pyran-2-yloxy)benzoate at pH 7.4 after 12 hrs by HPLC analysis; format: ADME, tissue-based; conditions: in vivo, pH 7.4, 12 h
[29] = system: Small intestine; experiment: Drug level in Sprague-Dawley rat small intestine homogenate treated with sodium 4-amino-2-((2S,3R,4S,5S,6R)-3,4,5-trihydroxy-6-(hydroxymethyl)tetrahydro-2H- pyran-2-yloxy)benzoate at pH 6.8 by HPLC analysis; format: ADME, tissue-based; conditions: in vivo

Compound: Nc1ccc(O)c(C(=O)O)c1
- inhibition [1]: Active
- Activity [2]: inactive
- Activity [3]: inactive

Compound: O=C(O)c1cc(/N=N/c2ccc(S(=O)(=O)Nc3ccccn3)cc2)ccc1O [SULFASALAZINE]
- Activity [4]: 0.58 U/g
- inhibition [5]: Active

- Stability [7]: Stable
- Stability [9]: Stable
- solubility [14]: 635 mg/mL
- Stability [17]: Stable
- logD [18]: -0.44
Compound: Nc1ccc(C(=O)[O-])c(O[C@@H]2O[C@H](CO)[C@@H](O)[C@H](O)[C@H]2O)c1.[Na+]
- Activity [6]: inactive
- Activity [8]: 0.51 U/g
- Activity [10]: Active
- inhibition [11]: Dose-dependent effect
- Activity [12]: Active
- Activity [13]: Dose-dependent effect
- Activity [15]: 0.4 U/g
- Activity [16]: Active
- inhibition [19]: Dose-dependent effect
- inhibition [20]: Active

- Drug metabolism [21]: metabolite_detected
- Drug metabolism [22]: metabolite_detected
- Drug metabolism [24]: metabolite_detected
- Drug metabolism [25]: metabolite_detected
- Drug metabolism [26]: metabolite_detected
- solubility [14]: 1.43 mg/mL (≈ 9.34 mM)
- logD [18]: 0.901
- Drug metabolism [27]: metabolite_detected
- Drug metabolism [28]: metabolite_detected
- Drug metabolism [29]: metabolite_detected
Compound: Nc1ccc(C(=O)O)c(O)c1 [AMINOSALICYLIC ACID]
- inhibition [1]: Active
- Activity [2]: inactive
- Activity [3]: inactive
- Activity [23]: 0.82 U/g
